Test: xn = mol fraction of the nth substance listed
Conditions: Gas; for mass density: Gas pipette; for viscosity: Oscillating disk viscometry

COC [dimethyl ether] + N#N
Conditions	mass density [kg/m3]	viscosity [mPa·s]
298.15 K, 101 kPa, x1 = 0.256	1.178	0.01483
298.15 K, 101 kPa, x1 = 0.449	1.433	0.013
298.15 K, 101 kPa, x1 = 0.752	1.783	0.01063
298.15 K, 101 kPa, x1 = 1	1.91	0.00922
298.15 K, 262 kPa, x1 = 0.752	4.839	0.0106
298.15 K, 264 kPa, x1 = 0.449	4.075	0.013
298.15 K, 296 kPa, x1 = 1	6.081	0.00918
298.15 K, 305 kPa, x1 = 0.256	4.298	0.01488
298.15 K, 475 kPa, x1 = 1	10.06	0.0091
298.15 K, 614 kPa, x1 = 0.752	11.78	0.0106
298.15 K, 640 kPa, x1 = 0.449	9.965	0.01303
298.15 K, 683 kPa, x1 = 0.256	9.296	0.01494
323.15 K, 101 kPa, x1 = 0.228	1.08	0.01629
323.15 K, 101 kPa, x1 = 0.449	1.144	0.01402
323.15 K, 101 kPa, x1 = 0.698	1.303	0.012
323.15 K, 101 kPa, x1 = 1	1.652	0.00997
323.15 K, 270 kPa, x1 = 0.698	4.353	0.01201
323.15 K, 295 kPa, x1 = 1	5.561	0.00996
323.15 K, 321 kPa, x1 = 0.449	4.449	0.01406
323.15 K, 354 kPa, x1 = 0.228	4.544	0.01632
323.15 K, 485 kPa, x1 = 0.698	7.499	0.01201
323.15 K, 486 kPa, x1 = 0.449	6.864	0.01408
323.15 K, 490 kPa, x1 = 1	9.31	0.00993
323.15 K, 553 kPa, x1 = 0.228	6.768	0.01636
323.15 K, 695 kPa, x1 = 0.698	11.57	0.01206
323.15 K, 714 kPa, x1 = 0.449	10.2	0.01408
323.15 K, 736 kPa, x1 = 1	14.71	0.00995
323.15 K, 910 kPa, x1 = 0.228	11.15	0.01636
323.15 K, 946 kPa, x1 = 0.698	15.73	0.01208
323.15 K, 976 kPa, x1 = 1	22.53	0.00994
323.15 K, 990 kPa, x1 = 0.449	13.89	0.01413
348.15 K, 101 kPa, x1 = 0.313	1.11	0.01638
348.15 K, 101 kPa, x1 = 0.491	1.237	0.01463
348.15 K, 101 kPa, x1 = 0.661	1.332	0.01319
348.15 K, 101 kPa, x1 = 1	1.332	0.01081
348.15 K, 294 kPa, x1 = 0.313	3.552	0.01639
348.15 K, 305 kPa, x1 = 1	5.17	0.01081
348.15 K, 306 kPa, x1 = 0.661	4.345	0.01319
348.15 K, 325 kPa, x1 = 0.491	4.155	0.01468
348.15 K, 519 kPa, x1 = 0.661	7.453	0.01321
348.15 K, 520 kPa, x1 = 0.313	6.153	0.01644
348.15 K, 525 kPa, x1 = 0.491	6.977	0.01471
348.15 K, 551 kPa, x1 = 1	9.705	0.01082
348.15 K, 992 kPa, x1 = 0.661	14.43	0.01327
348.15 K, 998 kPa, x1 = 0.313	11.96	0.0165
348.15 K, 1006 kPa, x1 = 1	19.03	0.01085
348.15 K, 1021 kPa, x1 = 0.491	13.54	0.01476
348.15 K, 1561 kPa, x1 = 1	35.81	0.01094
348.15 K, 1850 kPa, x1 = 1	44.66	0.01106
348.15 K, 1909 kPa, x1 = 0.491	26.07	0.01499
348.15 K, 2053 kPa, x1 = 0.661	33.49	0.01353
348.15 K, 2095 kPa, x1 = 0.313	25.47	0.01672
373.15 K, 101 kPa, x1 = 0.281	0.665	0.01773
373.15 K, 101 kPa, x1 = 0.522	0.95	0.01534
373.15 K, 101 kPa, x1 = 0.82	1.171	0.01282
373.15 K, 101 kPa, x1 = 1	1.235	0.01161
373.15 K, 301 kPa, x1 = 0.522	3.577	0.01535
373.15 K, 305 kPa, x1 = 1	4.748	0.0116
373.15 K, 312 kPa, x1 = 0.82	4.4	0.01285
373.15 K, 325 kPa, x1 = 0.281	3.419	0.01777
373.15 K, 500 kPa, x1 = 1	7.787	0.01162
373.15 K, 516 kPa, x1 = 0.82	7.217	0.01285
373.15 K, 520 kPa, x1 = 0.281	5.508	0.01777
373.15 K, 530 kPa, x1 = 0.522	6.584	0.01539
373.15 K, 1011 kPa, x1 = 0.281	10.64	0.01784
373.15 K, 1028 kPa, x1 = 1	16.71	0.01168
373.15 K, 1029 kPa, x1 = 0.522	12.76	0.0155
373.15 K, 1038 kPa, x1 = 0.82	15.16	0.01295
373.15 K, 1915 kPa, x1 = 0.281	20.8	0.01801
373.15 K, 1940 kPa, x1 = 1	35.33	0.01191
373.15 K, 1952 kPa, x1 = 0.82	30.93	0.01314
373.15 K, 2036 kPa, x1 = 0.522	25.83	0.01568
373.15 K, 2505 kPa, x1 = 1	51.25	0.01219
373.15 K, 2875 kPa, x1 = 1	67.49	0.01247
373.15 K, 2895 kPa, x1 = 0.82	51.12	0.01352
373.15 K, 3005 kPa, x1 = 0.281	33.02	0.01823
373.15 K, 3049 kPa, x1 = 1	74.07	0.01261
373.15 K, 3065 kPa, x1 = 0.522	40.84	0.01599
398.15 K, 101 kPa, x1 = 0.246	0.853	0.01917
398.15 K, 101 kPa, x1 = 0.525	0.885	0.01617
398.15 K, 101 kPa, x1 = 0.78	0.727	0.01397
398.15 K, 101 kPa, x1 = 1	0.948	0.01234
398.15 K, 300 kPa, x1 = 1	4.392	0.01237
398.15 K, 310 kPa, x1 = 0.246	2.938	0.01921
398.15 K, 315 kPa, x1 = 0.78	4.107	0.01399
398.15 K, 317 kPa, x1 = 0.525	3.633	0.01622
398.15 K, 516 kPa, x1 = 0.525	5.877	0.01623
398.15 K, 519 kPa, x1 = 0.246	5.15	0.01919
398.15 K, 531 kPa, x1 = 1	7.678	0.01239
398.15 K, 533 kPa, x1 = 0.78	7.077	0.01401
398.15 K, 992 kPa, x1 = 1	15.1	0.01244
398.15 K, 1009 kPa, x1 = 0.78	13.52	0.0141
398.15 K, 1020 kPa, x1 = 0.525	11.91	0.01629
398.15 K, 1048 kPa, x1 = 0.246	10.02	0.01926
398.15 K, 2018 kPa, x1 = 0.525	23.95	0.01651
398.15 K, 2030 kPa, x1 = 0.246	19.75	0.01943
398.15 K, 2030 kPa, x1 = 0.78	28.37	0.01433
398.15 K, 2085 kPa, x1 = 1	34.47	0.01274
398.15 K, 2973 kPa, x1 = 0.246	29.35	0.0196
398.15 K, 2985 kPa, x1 = 1	54.66	0.01317
398.15 K, 2986 kPa, x1 = 0.78	44.58	0.01465
398.15 K, 3015 kPa, x1 = 0.525	36.43	0.01675
398.15 K, 3735 kPa, x1 = 0.78	58.58	0.015
398.15 K, 3839 kPa, x1 = 0.246	37.95	0.01974
398.15 K, 3905 kPa, x1 = 0.525	47.93	0.01701
398.15 K, 3965 kPa, x1 = 1	87.68	0.0141
398.15 K, 4480 kPa, x1 = 1	112.3	0.01504
398.15 K, 4569 kPa, x1 = 0.78	77.25	0.0155
398.15 K, 4620 kPa, x1 = 1	122.4	0.01543
398.15 K, 4730 kPa, x1 = 0.525	59.49	0.01731
398.15 K, 4860 kPa, x1 = 0.246	48.5	0.01995
423.15 K, 101 kPa, x1 = 0.272	0.662	0.01978
423.15 K, 101 kPa, x1 = 0.527	0.694	0.01721
423.15 K, 101 kPa, x1 = 0.764	1.072	0.01516
423.15 K, 101 kPa, x1 = 1	1.009	0.01332
423.15 K, 310 kPa, x1 = 1	4.289	0.01333
423.15 K, 314 kPa, x1 = 0.272	2.901	0.01984
423.15 K, 316 kPa, x1 = 0.527	3.343	0.01723
423.15 K, 320 kPa, x1 = 0.764	4.447	0.01522
423.15 K, 505 kPa, x1 = 0.527	5.456	0.01726
423.15 K, 505 kPa, x1 = 1	6.812	0.01335
423.15 K, 520 kPa, x1 = 0.764	6.591	0.01524
423.15 K, 529 kPa, x1 = 0.272	4.699	0.01986
423.15 K, 985 kPa, x1 = 1	13.75	0.01342
423.15 K, 1021 kPa, x1 = 0.764	12.33	0.0153
423.15 K, 1040 kPa, x1 = 0.272	9.555	0.01994
423.15 K, 1047 kPa, x1 = 0.527	11.35	0.01734
423.15 K, 2013 kPa, x1 = 0.527	22.17	0.01753
423.15 K, 2022 kPa, x1 = 1	30.21	0.0137
423.15 K, 2030 kPa, x1 = 0.272	18.92	0.02008
423.15 K, 2060 kPa, x1 = 0.764	25.8	0.01558
423.15 K, 2926 kPa, x1 = 0.764	38.25	0.01581
423.15 K, 2955 kPa, x1 = 0.272	27.91	0.02018
423.15 K, 2995 kPa, x1 = 0.527	33.84	0.01769
423.15 K, 3004 kPa, x1 = 1	48.47	0.01413
423.15 K, 3970 kPa, x1 = 0.764	54.49	0.01621
423.15 K, 3973 kPa, x1 = 0.527	45.63	0.01796
423.15 K, 4000 kPa, x1 = 0.272	37.87	0.02038
423.15 K, 4015 kPa, x1 = 1	71.3	0.01477
423.15 K, 4495 kPa, x1 = 1	86.57	0.01521
423.15 K, 4873 kPa, x1 = 0.527	56.58	0.01822
423.15 K, 4894 kPa, x1 = 0.764	69.38	0.01664
423.15 K, 4911 kPa, x1 = 0.272	46.7	0.02057
423.15 K, 4912 kPa, x1 = 1	99.15	0.01568
